Results as given in US10905700B2, “Chemoprevention of colorectal cancer” (SOFAR SPA, priority 2012, dated 2021).

Tests used:
Assay type in all cases: cell-based
[1] = test system: colorectal adenocarcinoma cell line HT29; assay: Growth curve (cell count every 24 hours) of cell line HT29; details: HT29, 96 hours of stimulation; 5-ASA 20 mM, VD3 10^-7 M, alone or combined; control 14 expansions
Procedure: The cell lines CaCo2 and HT29 of colorectal adenocarcinoma obtained from the ATCC (Rockville, Md., USA) were grown in a DMEM culture medium (Euroclone, Devon, UK), to which were added 10% foetal bovine serum (Lonza, Walkersville, Md., USA) inactivated at heat and 1 mM of L-glutamine (Euroclone). The 5-aminosalicylic acid (5-ASA, SOFAR S.p.A., Milan, Italy) and acetylsalicylic acid (ASA, Sigma Aldrich, St Louise, Mo., USA) were dissolved in a culture medium in a concentration of respectively 20 and 10 mM. […] The QRT-PCR was then carried out with an ABI PRISM 7900 (Applied Biosystems) sequence detecting system for quantifying the relative levels of mRNA measured in the various samples. […] The QRT-PCR signals were evacuated using the corresponding quantification method ΔΔ[…]. Relative gene expression data were analysed using real-time quantitative PCR and the 2(-Delta Delta C(T)) Method. […] The values obtained were expressed as a relative quantity (RQ) of the variation in the messenger levels. The colorectal adenocarcinoma cell line HT29, which was chosen for its responsiveness to the VD3 deriving from the corresponding VDR receptor, was subjected to “in vitro” treatment with 5-ASA 20 mM and VD3 10^-7 M, used individually and in association, in order to quantify the antiproliferative effect determined by the compounds analysed on cancerous colonocytes. […]

[2] = test system: μ-protocadherin, E-cadherin, p21^waf1 and KLF4 messenger expression in HT29 cells; assay: QRT-PCR analysis of mRNA of genes regulating proliferation, differentiation and apoptosis in HT29 cells; details: HT29, 96 hours; 5-ASA 20 mM, VD3 10^-7 M, alone or combined; RQ vs calibrator, normalised on GAPDH
Procedure: The cell lines CaCo2 and HT29 of colorectal adenocarcinoma obtained from the ATCC (Rockville, Md., USA) were grown in a DMEM culture medium (Euroclone, Devon, UK), to which were added 10% foetal bovine serum (Lonza, Walkersville, Md., USA) inactivated at heat and 1 mM of L-glutamine (Euroclone). The 5-aminosalicylic acid (5-ASA, SOFAR S.p.A., Milan, Italy) and acetylsalicylic acid (ASA, Sigma Aldrich, St Louise, Mo., USA) were dissolved in a culture medium in a concentration of respectively 20 and 10 mM. The vitamin D3 (VD3) (1 alpha, 25 dihydroxyvitamin D3, calcitriol, Sigma Aldrich) was diluted in the culture medium at a concentration of 10^-7 M. For the experiments conducted with the cell line HT29, 300,000 cells were sown for each sample and 5-ASA, vitamin D3 or the combination of 5-ASA and VD3 were added to each well. For the experiments conducted with the cell line CaCo2, on the other hand, 300,000 cells were again sown for each sample, but adding 5-ASA or ASA to each well. The treated cells were then subjected to a cell count every 24 hours to monitor the anti-proliferation effect of the different stimuli. After 96 hours of treatment all the cells were collected, resorbed and the RNA was extracted by means of the “Qiagen total RNA purification kit” following the manufacturer's instructions (Qiagen, Valencia, Calif.). The integrity and concentration of the RNA were tested using the Bio-Analyzer technique (Applied Biosystem, Foster City, Calif.). 100 ng total of RNA were then retrotranscribed using the High Capacity cDNA Archive Kit (Applied Biosystems) on the basis of the instructions provided by the manufacturer. The QRT-PCR was then carried out with an ABI PRISM 7900 (Applied Biosystems) sequence detecting system for quantifying the relative levels of mRNA measured in the various samples. The triggers and probes for amplifying the mRNA of the μ-protocadherin, E-cadherin, p21^waf-1, KLF4 and glyceraldehyde 3-phosphate dehydrogenase (GAPDH) were devised by Applied Biosystems. Each sample of cDNA was processed in triplicate in 50 μl of reaction volume using the Taqman Universal PCR Master Mix (Applied Biosystems). Thermal cyclisation was started with initial denaturation at 50° C. for 2 minutes and at 90° C. for 10 minutes followed by 40 cycles of 15 seconds at 95° C. and 1 minute at 60° C. The QRT-PCR signals were evacuated using the corresponding quantification method ΔΔ[…]. Relative gene expression data were analysed using real-time quantitative PCR and the 2(-Delta Delta C(T)) Method. Methods 2001; 25(4):402-8). This procedure calculates the relative difference in gene expression of the target gene normalised on the endogen control (GAPDH) and compared with a calibrating sample. The values obtained were expressed as a relative quantity (RQ) of the variation in the messenger levels. In order to check at the molecular level the effects determined on the cell line HT29 by the association 5-ASA/VD3, “Real Time”, quantitative RT-PCR was used to analyse the expression of a series of genes the protein products of which are involved in the regulation of the proliferation, differentiation and apoptosis of cancer colonocytes such as μ-protocadherin, E-cadherin, p21^waf1 and KLF4. This analysis was conducted on cell cultures subjected to 96 hours of treatment with the studied drugs, which were used in the previously disclosed concentrations.

[3] = test system: colorectal adenocarcinoma cell line CaCo2; assay: Growth curve (cell count) of cell line CaCo2 treated with 5-ASA and ASA; details: CaCo2, 96 hours; for cellularity "fold change" value / mortality / survival of treated cells: concentration of 20 mM of the analysed drugs
Procedure: (§1) The cell lines CaCo2 and HT29 of colorectal adenocarcinoma obtained from the ATCC (Rockville, Md., USA) were grown in a DMEM culture medium (Euroclone, Devon, UK), to which were added 10% foetal bovine serum (Lonza, Walkersville, Md., USA) inactivated at heat and 1 mM of L-glutamine (Euroclone). The 5-aminosalicylic acid (5-ASA, SOFAR S.p.A., Milan, Italy) and acetylsalicylic acid (ASA, Sigma Aldrich, St Louise, Mo., USA) were dissolved in a culture medium in a concentration of respectively 20 and 10 mM. The vitamin D3 (VD3) (1 alpha, 25 dihydroxyvitamin D3, calcitriol, Sigma Aldrich) was diluted in the culture medium at a concentration of 10^−7 M. For the experiments conducted with the cell line HT29, 300,000 cells were sown for each sample and 5-ASA, vitamin D3 or the combination of 5-ASA and VD3 were added to each well. For the experiments conducted with the cell line CaCo2, on the other hand, 300,000 cells were again sown for each sample, but adding 5-ASA or ASA to each well. The treated cells were then subjected to a cell count every 24 hours to monitor the anti-proliferation effect of the different stimuli. After 96 hours of treatment all the cells were collected, resorbed and the RNA was extracted by means of the “Qiagen total RNA purification kit” following the manufacturer's instructions (Qiagen, Valencia, Calif.). The integrity and concentration of the RNA were tested using the Bio-Analyzer technique (Applied Biosystem, Foster City, Calif.). 100 ng total of RNA were then retrotranscribed using the High Capacity cDNA Archive Kit (Applied Biosystems) on the basis of the instructions provided by the manufacturer. The QRT-PCR was then carried out with an ABI PRISM 7900 (Applied Biosystems) sequence detecting system for quantifying the relative levels of mRNA measured in the various samples. The triggers and probes for amplifying the mRNA of the μ-protocadherin, E-cadherin, p21^waf-1, KLF4 and glyceraldehyde 3-phosphate dehydrogenase (GAPDH) were devised by Applied Biosystems. Each sample of cDNA was processed in triplicate in 50 μl of reaction volume using the Taqman Universal PCR Master Mix (Applied Biosystems). Thermal cyclisation was started with initial denaturation at 50° C. for 2 minutes and at 90° C. for 10 minutes followed by 40 cycles of 15 seconds at 95° C. and 1 minute at 60° C. The QRT-PCR signals were evacuated using the corresponding quantification method ΔΔCt (Livak K J, Schmittgen T D. Relative gene expression data were analysed using real-time quantitative PCR and the 2(-Delta Delta C(T)) Method. Methods 2001; 25(4):402-8). This procedure calculates the relative difference in gene expression of the target gene normalised on the endogen control (GAPDH) and compared with a calibrating sample. The values obtained were expressed as a relative quantity (RQ) of the variation in the messenger levels.
In order to characterise further the profile of efficacy and safety associated with the chemopreventive properties of 5-ASA, a series of experiments was conducted of the same type as the series explained previously, in which a comparative analysis was conducted of the biological effects determined on cancer colonocytes following treatment with 5-ASA and with aspirin (ASA), i.e. the main drug of the family of NSAIDs. […]

[4] = test system: μ-protocadherin, E-cadherin, p21^waf1 and KLF4 messenger expression in CaCo2 cells; assay: QRT-PCR analysis of mRNA of β-catenin signal pathway genes in CaCo2 cells; details: CaCo2, 96 hours; 5-ASA 20 mM, ASA 10 mM
Procedure: as §1
On the samples taken from these cell cultures and from other cultures used as a control, the levels of messenger RNA of the genes listed in the previous paragraph (see FIG. 2) was determined by Quantitative Real Time RT-PCR. The obtained results have shown that the messenger expression of the μ-protocadherin, E-cadherin, p21^waf1 and KLF4 genes were induced respectively 3.8, 2.4, 8.0 and 5.5 times after treatment with 5-ASA 20 mM (FIG. 4), confirming the data previously observed on the cell line HT29. […] This datum is not surprising, considering the redundancy and heterogeneity that characterise molecular regulation of the gene p21^waf1, the expression of which is not only regulated by the proliferation signalling pathway of the β chain, explored in our experimental conditions through the evaluation of the codifying genes for μ-protocadherin, E-cadherin and KLF4, but also by numerous signalling pathways.

SMILES | number of cell expansions compared with the initial number of cells [1] [expansions] | increase in messenger expression of E-cadherin [2] [times] | increase in messenger expression of KLF-4 [2] [times] | increase in messenger expression of p21 [2] [times] | increase in messenger expression of μ-protocadherin [2] [times] | cellularity "fold change" value [3] | mortality / survival of treated cells [3] | induction of messenger expression of E-cadherin [4] | induction of messenger expression of KLF4 [4] | induction of messenger expression of p21^waf1 [4] [times] | induction of messenger expression of μ-protocadherin [4] | antiproliferative effect of ASA 10 mM compared with 5-ASA 20 mM ([3]; 10 mM ASA vs 20 mM 5-ASA (equivalents))
C=C1/C(=C\C=C2/CCC[C@]3(C)[C@@H]([C@H](C)CCCC(C)(C)O)CC[C@@H]23)C[C@@H](O)C[C@@H]1O [VD3, 1 alpha, 25 dihydroxyvitamin D3] | 10 | 1.7 | 1.6 | 1.5 | 1 |  |  |  |  |  |  | 
Nc1ccc(O)c(C(=O)O)c1 [5-ASA, 5-aminosalicylic acid] | 8 | 2.2 | 2.2 | 2.9 | 2.5 | 1 | all the cells treated with 5-ASA survive | 2.4 times | 5.5 times | 8.0 | 3.8 times | 
CC(=O)Oc1ccccc1C(=O)O [ASA, acetylsalicylic acid] |  |  |  |  |  | 0.2 | 80% | does not, on the other hand, induce | does not, on the other hand, induce | 5.8 | does not, on the other hand, induce | absolutely superimposable antiproliferative effect
